Bridge positions count the residues as written; N and C are the ends. Square brackets hold non-standard residues; d marks the D form. Peptide text beside a SMILES is read from it. Trp(1-Me) = Cn1cc(C[C@H](N)C(=O)O)c2ccccc21; NMeI = CC[C@H](C)[C@H](NC)C(=O)O; Sar = CNCC(=O)O
Columns and labels:
[1] = test system: rat complement C3 function; experiment: CH50 test (Mayer method) in vitro, peptide added to rat plasma; format: biochemical; settings: 0, 2.5, 5.0, 10, 20, 40 µM added to mixed wild-type SD rat plasma; sensitized sheep erythrocytes
Method: The total functional complement was determined with a CH50 assay based on the modified method of Mayer. The 50% haemolytic standard tube was made by adding 0.3 ml 2% sheep erythrocytes (Chundubio, Wuhan, China) to 1.2 ml distilled water and then diluting with equivoluminal veronal buffer saline (Leagene, Beijing, China). The sheep erythrocytes were sensitized by adding a designated volume of a predetermined concentration of rabbit haemolytic serum (Solarbio, Beijing, China) in veronal buffer saline. The plasma of rats was first prediluted in veronal buffer saline at 1/5, 1/10, and 1/20. […] The OD values of supernatant liquid in the ten tubes were measured at 541 nm and compared with that of the 50% haemolytic standard tube to get the most similar value. The total haemolytic complement (CH50) = dilution ratio / the quantity of plasma needed to induce 50% lysis of sheep erythrocytes.
Plasma samples for biological assays from rats were centrifuged and stored at -80°C until used, and the total functional complement was determined with a CH50 assay based on the modified method of Mayer. This assay involves determining the quantity of plasma needed to induce 50% lysis of sheep erythrocytes sensitized with antibody anti-sheep erythrocytes. […] The total hemolytic complement (CH50) = dilution ratio / the quantity of plasma needed to induce 50% lysis of sheep erythrocytes^5-7.

[2] = cited from earlier work
From the text: The selective C3 inhibitor CP40 has been found therapeutically effective in various diseases, but has yet not been tested in the PAH model. In the current study, we applied the newly identified CP40 analog, CP40-KK, with two more lysine attached to the C terminus, in the MCT-induced PAH rat model.

[3] = test system: C3b; settings: cited from earlier work
[4] = test system: complement C3; settings: cited from earlier work

## CC[C@H](C)[C@H](NC(=O)[C@H](N)Cc1ccc(O)cc1)C(=O)N[C@H]1CSSC[C@@H](C(=O)N(C)[C@H](C(=O)N[C@@H](CCCCN)C(=O)N[C@@H](CCCCN)C(N)=O)[C@@H](C)CC)NC(=O)[C@H](CCCNC(=N)N)NC(=O)[C@H](Cc2c[nH]cn2)NC(=O)CN(C)C(=O)[C@H](Cc2c[nH]c3ccccc23)NC(=O)[C@H](CC(=O)O)NC(=O)[C@H](CCC(N)=O)NC(=O)[C@H](Cc2cn(C)c3ccccc23)NC(=O)[C@H](C(C)C)NC1=O [CP40-KK] (H-[dY]ICV[Trp(1-Me)]QDW[Sar]HRC[NMeI]KK-NH2; disulfide 3-12 (inferred))
[1]
  CH50 value (rat C3 function) in vitro: blocked rat C3 function in a dosage-dependent manner
[2]; at physiological pH
  improvement in solubility in comparison with parental peptide CP40: > 200 fold
[2]; non-human primates
  apparent clearance compared to CP40 (decreased): ~2.6 fold
  maximum concentration compared to CP40 (higher): twofold
  terminal half-life compared to CP40 (higher): fivefold
[3]
  binding affinity for C3b relative to CP40: increase the binding affinity for C3b
[4]
  inhibitory potency relative to CP40: retaining its inhibitory potency
